Numbers after ± are expanded uncertainties.
Details: Liquid

## CCO [ethanol]
298.15 K, 100 kPa
  mass density: 785.7 ± 0.4 kg/m3
298.15 K, 10000 kPa
  mass density: 794 ± 0.4 kg/m3
298.15 K, 20000 kPa
  mass density: 801.9 ± 0.6 kg/m3
298.15 K, 30000 kPa
  mass density: 808.9 ± 0.7 kg/m3
298.15 K, 40000 kPa
  mass density: 815.7 ± 0.8 kg/m3
323.15 K, 100 kPa
  mass density: 763.7 ± 0.4 kg/m3
323.15 K, 10000 kPa
  mass density: 773.4 ± 0.5 kg/m3
323.15 K, 20000 kPa
  mass density: 782.3 ± 0.6 kg/m3
323.15 K, 30000 kPa
  mass density: 790.3 ± 0.7 kg/m3
323.15 K, 40000 kPa
  mass density: 797.7 ± 0.9 kg/m3
348.15 K, 100 kPa
  mass density: 739.4 ± 0.4 kg/m3
348.15 K, 10000 kPa
  mass density: 751.2 ± 0.5 kg/m3
348.15 K, 20000 kPa
  mass density: 761.2 ± 0.6 kg/m3
348.15 K, 30000 kPa
  mass density: 770.3 ± 0.8 kg/m3
348.15 K, 40000 kPa
  mass density: 778.6 ± 0.9 kg/m3

Reference: the NIST ThermoML archive (doi:10.1016/j.fluid.2004.11.019)
